{"source": "ChEMBL document CHEMBL1201862", "about": "“PubChem BioAssay data set” (2004)", "key": {"[1]": {"assay": "inhibitors of fibronectin matrix deposition, dose response, AH1F cells, Alexa488-FN fluorescence, cherry-picks (AID 1035475)", "format": "functional, cell-based"}, "[2]": {"assay": "HEK293 cell cytotoxicity, dose response, cytotoxicity control, cherry-picks, set 5 (AID 1053117)", "format": "functional, cell-based"}, "[3]": {"assay": "NIH:OVCAR-3 ovarian cancer cell cytotoxicity, dose response, PAX8 inhibitor project, plate reader, dry powder samples (AID 743044)", "format": "functional, cell-based"}, "Paired box protein Pax-8": {"target": "Paired box protein Pax-8 (Homo sapiens, UniProt Q06710)", "sequence (Q06710 whole entry)": "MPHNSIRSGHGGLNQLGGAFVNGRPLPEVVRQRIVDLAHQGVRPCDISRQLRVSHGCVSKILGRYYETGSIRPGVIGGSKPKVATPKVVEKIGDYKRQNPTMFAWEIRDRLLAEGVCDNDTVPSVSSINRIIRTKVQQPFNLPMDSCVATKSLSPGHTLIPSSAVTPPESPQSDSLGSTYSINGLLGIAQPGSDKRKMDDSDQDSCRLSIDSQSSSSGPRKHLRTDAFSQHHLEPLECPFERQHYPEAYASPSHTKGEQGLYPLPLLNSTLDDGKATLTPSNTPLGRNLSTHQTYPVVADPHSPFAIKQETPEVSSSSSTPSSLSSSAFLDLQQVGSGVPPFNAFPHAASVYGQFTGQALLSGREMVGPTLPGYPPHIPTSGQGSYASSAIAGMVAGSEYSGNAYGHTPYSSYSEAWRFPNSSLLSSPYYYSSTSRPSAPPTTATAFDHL", "assay": "inhibitors of PAX8-driven TPO luciferase reporter, dose response, RMG-I cells, cherry-pick (AID 687027);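 note: luciferase reporter driven by Pax8 target thyroperoxidase promoter measured by SteadyGlo luminescence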", "format": "functional, cell-based"}, "[4]": {"assay": "IGROV1 ovarian cancer cell cytotoxicity, dose response, PAX8 inhibitor project, plate reader, dry powder samples (AID 743043)", "format": "functional, cell-based", "conditions": "IGROV-1"}, "[5]": {"assay": "cytotoxicity in OVCAR8 ovarian cancer cells, dose response, PAX8 project, cell-based, plate reader, dry powder samples (AID 743197)", "format": "functional", "conditions": "OVCAR-8"}, "[6]": {"assay": "A2780 ovarian cancer cell cytotoxicity, dose response, cytotoxicity control, plate reader, dry powder samples (AID 743046)", "format": "functional, cell-based"}, "Streptokinase A": {"target": "T1, Streptokinase A (Streptococcus pyogenes serotype M1, UniProt P10520)", "T1 sequence (P10520 whole entry)": "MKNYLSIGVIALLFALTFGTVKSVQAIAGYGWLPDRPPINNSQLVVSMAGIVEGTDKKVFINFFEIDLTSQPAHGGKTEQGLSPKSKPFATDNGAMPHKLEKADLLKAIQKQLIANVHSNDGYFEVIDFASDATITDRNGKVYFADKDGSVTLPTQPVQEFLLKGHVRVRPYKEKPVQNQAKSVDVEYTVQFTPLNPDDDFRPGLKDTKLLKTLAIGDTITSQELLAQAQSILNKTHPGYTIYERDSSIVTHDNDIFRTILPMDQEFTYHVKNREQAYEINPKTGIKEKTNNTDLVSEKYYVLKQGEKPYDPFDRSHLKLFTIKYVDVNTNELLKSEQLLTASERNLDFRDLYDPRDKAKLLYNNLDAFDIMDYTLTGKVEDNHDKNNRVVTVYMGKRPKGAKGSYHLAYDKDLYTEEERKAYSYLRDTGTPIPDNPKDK", "assay": "S. pyogenes streptokinase expression inhibitors, potency, dose response, plasminogen activation absorbance, OD405 (AID 1914);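 note: secreted streptokinase activity via plasminogen activation per viability signal from cell pellet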", "format": "functional, Streptococcus pyogenes M1 GAS"}, "[7]": {"target": "Disintegrin and metalloproteinase domain-containing protein 17 (Homo sapiens, UniProt P78536)", "sequence (P78536 whole entry, the tested form may be a part)": "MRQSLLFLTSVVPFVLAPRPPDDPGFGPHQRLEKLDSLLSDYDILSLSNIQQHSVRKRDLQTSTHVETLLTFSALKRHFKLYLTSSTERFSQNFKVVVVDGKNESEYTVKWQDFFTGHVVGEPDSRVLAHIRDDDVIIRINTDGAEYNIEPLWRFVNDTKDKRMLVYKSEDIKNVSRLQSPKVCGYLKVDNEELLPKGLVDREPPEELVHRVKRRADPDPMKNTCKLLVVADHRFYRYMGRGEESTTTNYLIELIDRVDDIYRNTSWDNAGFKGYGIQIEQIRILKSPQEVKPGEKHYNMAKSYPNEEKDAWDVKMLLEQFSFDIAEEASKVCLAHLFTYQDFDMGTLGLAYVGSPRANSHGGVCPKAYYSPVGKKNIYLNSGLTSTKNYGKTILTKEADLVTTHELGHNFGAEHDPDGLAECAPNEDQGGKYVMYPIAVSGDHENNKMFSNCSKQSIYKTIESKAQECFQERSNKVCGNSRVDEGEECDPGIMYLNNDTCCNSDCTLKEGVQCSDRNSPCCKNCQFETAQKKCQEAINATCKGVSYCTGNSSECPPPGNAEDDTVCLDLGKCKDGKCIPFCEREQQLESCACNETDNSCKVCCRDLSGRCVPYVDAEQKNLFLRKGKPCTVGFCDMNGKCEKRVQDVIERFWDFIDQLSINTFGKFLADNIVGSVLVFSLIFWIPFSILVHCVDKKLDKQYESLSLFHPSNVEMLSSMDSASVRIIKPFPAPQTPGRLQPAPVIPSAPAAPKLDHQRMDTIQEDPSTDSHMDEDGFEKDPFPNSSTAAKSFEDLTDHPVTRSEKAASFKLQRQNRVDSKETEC", "assay": "ADAM17 protease inhibitors, dose response, counter-screen for ADAM10 exosite inhibitor project, biochemical, quenched FRET substrate (AID 743253)"}, "[8]": {"assay": "growth suppression of PTEN-null colon cells, dose response, cell-based, HCT116 PTEN knockout (AID 1047);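 note: HCT116 colon tumor cells with PTEN knocked out; cells exposed to compound for 60 hours before readout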", "format": "functional"}, "[9]": {"assay": "growth suppression of beta-catenin-knockout colon cells, dose response, cell-based, HCT116, human colon tumor (AID 1045);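 note: HCT116 colon tumor cells with beta catenin knocked out; cells exposed to compound for 60 hours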", "format": "functional"}, "[10]": {"system": "Streptococcus sp. 'group A'", "assay": "growth inhibition of control SK(-) GAS strain, dose response, counter-screen for streptokinase expression inhibitor project, luminescence, kanamycin, BacTiterGlo, confirmation (AID 1900)", "format": "functional, organism-based"}, "[11]": {"assay": "microbe, parasite or virus in culture", "format": "functional", "conditions": "Mycobacterium tuberculosis"}, "Streptococcus": {"system": "Streptococcus", "assay": "Group A Streptococcus viability loss, dose response, counter-screen for streptokinase expression inhibitor project, luminescence, BacTiterGlo (AID 1915);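 note: potency for reduction of bacterial viability or growth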", "format": "functional, organism-based"}, "[12]": {"target": "T2, Potassium channel subfamily K member 9 (Homo sapiens, UniProt Q9NPC2)", "T2 sequence (Q9NPC2 whole entry)": "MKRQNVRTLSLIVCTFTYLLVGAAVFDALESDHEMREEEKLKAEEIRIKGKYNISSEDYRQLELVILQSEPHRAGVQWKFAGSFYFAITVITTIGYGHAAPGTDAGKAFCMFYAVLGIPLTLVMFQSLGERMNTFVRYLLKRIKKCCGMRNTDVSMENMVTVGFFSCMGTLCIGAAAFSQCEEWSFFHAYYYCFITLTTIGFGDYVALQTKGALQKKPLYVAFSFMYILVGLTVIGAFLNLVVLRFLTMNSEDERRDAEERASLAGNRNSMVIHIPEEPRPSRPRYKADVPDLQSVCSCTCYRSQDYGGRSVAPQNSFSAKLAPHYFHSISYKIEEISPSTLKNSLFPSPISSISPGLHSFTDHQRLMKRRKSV", "assay": "KCNK9 (TASK3) current inhibition by patch clamp, SAR follow-up, selectivity assay for TASK1 (KCNK3) inhibitor project, cell-based, automated electrophysiology (AID 652210)", "format": "functional"}, "[13]": {"target": "Potassium channel subfamily K member 3 (Homo sapiens, UniProt O14649)", "sequence (O14649 whole entry)": "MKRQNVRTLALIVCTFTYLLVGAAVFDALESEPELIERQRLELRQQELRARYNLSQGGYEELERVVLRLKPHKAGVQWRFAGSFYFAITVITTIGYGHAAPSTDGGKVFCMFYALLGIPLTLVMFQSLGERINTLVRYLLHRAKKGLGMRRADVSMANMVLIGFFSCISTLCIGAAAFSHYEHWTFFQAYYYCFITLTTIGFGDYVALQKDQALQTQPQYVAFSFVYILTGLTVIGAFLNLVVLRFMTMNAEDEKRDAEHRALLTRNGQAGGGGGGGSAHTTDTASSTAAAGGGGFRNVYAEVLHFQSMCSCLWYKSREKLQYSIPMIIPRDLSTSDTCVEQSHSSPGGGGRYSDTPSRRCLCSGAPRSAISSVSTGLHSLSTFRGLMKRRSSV", "assay": "TASK1 (KCNK3) potassium channel inhibitors, SAR follow-up, CHO cells, FluxOR thallium flux (AID 652212)", "format": "functional"}, "[14]": {"target": "Potassium channel subfamily K member 3 (Rattus norvegicus, UniProt O54912)", "sequence (O54912 whole entry, the tested form may be a part)": "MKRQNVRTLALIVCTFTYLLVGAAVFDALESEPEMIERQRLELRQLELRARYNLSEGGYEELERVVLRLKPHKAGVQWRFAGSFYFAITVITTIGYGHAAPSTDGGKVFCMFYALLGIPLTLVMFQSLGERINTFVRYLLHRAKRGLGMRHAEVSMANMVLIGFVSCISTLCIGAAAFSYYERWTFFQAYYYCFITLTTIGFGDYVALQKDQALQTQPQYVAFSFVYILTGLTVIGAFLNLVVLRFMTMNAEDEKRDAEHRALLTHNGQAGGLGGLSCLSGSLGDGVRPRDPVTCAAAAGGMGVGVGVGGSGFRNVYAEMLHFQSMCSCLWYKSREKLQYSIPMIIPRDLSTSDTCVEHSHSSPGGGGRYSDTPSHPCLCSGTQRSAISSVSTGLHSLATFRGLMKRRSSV", "assay": "SAR analysis for the identification of selective inhibitors of the two-pore domain potassium channel TASK1(KCNK3):Automated Electrophysiology.", "format": "functional"}, "[15]": {"target": "T2, Potassium channel subfamily K member 9", "assay": "TASK3 (KCNK9) channel inhibitors, thallium flux, SAR follow-up, selectivity assay for TASK1 inhibitor project, cell-based, FluxOR thallium flux, concentration-response (AID 652211)", "format": "functional"}, "[16]": {"assay": "cytotoxicity toward DRD oncogenic fibroblasts, dose response, cell-based, non-viral oncogenic, luminescence (AID 1934)", "format": "functional", "conditions": "Homo sapiens"}, "BJ [17]": {"system": "BJ", "assay": "cells", "format": "functional, cell-based", "conditions": "Homo sapiens"}, "BJ [18]": {"system": "BJ", "assay": "cytotoxicity toward BJ-TERT fibroblasts, dose response, cell-based, RAS-independent, luminescence (AID 1933)", "format": "functional", "conditions": "Homo sapiens"}, "[19]": {"assay": "HEK293 cell cytotoxicity, dose response, cytotoxicity control, dry powder samples (AID 720567)", "format": "functional, cell-based"}, "BJ [20]": {"system": "BJ", "assay": "cytotoxicity toward BJ-TERT-LT-ST fibroblasts, dose response, cell-based, RAS-independent, luminescence (AID 1935);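 note: BJ fibroblasts immortalized with TERT plus LT and ST oncogenes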", "format": "functional", "conditions": "Homo sapiens"}, "[21]": {"target": "T3, Oxysterols receptor LXR-beta (Homo sapiens, UniProt P55055)", "T3 sequence (P55055 whole entry)": "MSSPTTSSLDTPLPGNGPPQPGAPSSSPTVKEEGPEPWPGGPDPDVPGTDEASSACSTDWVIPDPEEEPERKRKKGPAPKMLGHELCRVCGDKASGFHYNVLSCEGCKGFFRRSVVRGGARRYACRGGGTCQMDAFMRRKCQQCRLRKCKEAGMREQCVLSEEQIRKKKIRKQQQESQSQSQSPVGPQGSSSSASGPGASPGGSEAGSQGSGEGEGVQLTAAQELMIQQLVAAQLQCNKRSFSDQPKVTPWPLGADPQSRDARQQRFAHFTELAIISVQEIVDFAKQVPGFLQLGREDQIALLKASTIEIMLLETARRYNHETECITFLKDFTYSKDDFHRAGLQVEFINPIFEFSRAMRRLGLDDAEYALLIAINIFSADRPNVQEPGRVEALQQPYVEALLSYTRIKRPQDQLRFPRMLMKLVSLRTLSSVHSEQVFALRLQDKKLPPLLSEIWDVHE", "format": "functional, cell-based"}, "[22]": {"assay": "HEK293T cell cytotoxicity, dose response, cytotoxicity control, CellTiter-Glo luminescence, dry powder, set 2 (AID 720595)", "format": "functional, cell-based", "conditions": "HEK293"}, "[23]": {"assay": "Mtb BioA inhibitors by displacement, dose response, biochemical, coupled fluorescence displacement, 20-point, dry powder (AID 743357)", "format": "functional"}}, "note": "Calls of active or inactive are those of the source."}
{"smiles": "N#Cc1ccc(-c2ccc3c(c2)[C@@H]2[C@@H](CCN2S(=O)(=O)c2cccc(F)c2)[C@H](CO)N3)cc1", "values": [{"measurement": "AC50", "setting": "[1]", "value": "1.18 µM (active)"}, {"measurement": "AC50", "setting": "[2]", "value": "> 52 µM (inactive)"}]}
{"smiles": "O=C1CN(S(=O)(=O)Cc2ccccc2)C[C@@H]2[C@@H](c3ccc(C#CCC4CCCC4)cc3)[C@@H](CO)N12", "values": [{"measurement": "AC50", "setting": "[3]", "value": "4.22 µM (active)"}, {"measurement": "AC50", "setting": "Paired box protein Pax-8", "value": "4.58 µM (active)"}, {"measurement": "AC50", "setting": "[4]", "value": "18.8 µM (active)"}, {"measurement": "AC50", "setting": "[5]", "value": "28.1 µM (active)"}, {"measurement": "AC50", "setting": "[6]", "value": "11.3 µM (active)"}]}
{"smiles": "O=[N+]([O-])c1ccc(-c2nc(-c3cccs3)c(-c3cccs3)[nH]2)cc1", "values": [{"measurement": "EC50", "setting": "Streptokinase A", "value": "20.1 µM (active)"}, {"measurement": "IC50", "setting": "[7]", "value": "> 69.5 µM (inactive)"}, {"measurement": "EC50", "setting": "[8]", "value": "17.1 µM (active)"}, {"measurement": "EC50", "setting": "[9]", "value": "19 µM (active)"}, {"measurement": "EC50", "setting": "[10]", "value": "11.6 µM (active)"}, {"measurement": "CC50", "setting": "[11]", "value": "19.5 µM (active)"}, {"measurement": "EC50", "setting": "Streptococcus", "value": "17.3 µM (active)"}]}
{"smiles": "CCOc1ccccc1NC(=O)c1cccc(NC(=O)c2ccccc2C(F)(F)F)c1", "values": [{"measurement": "IC50", "setting": "[12]", "value": "0.52 µM (active)"}, {"measurement": "IC50", "setting": "[13]", "value": "0.03 µM (active)"}, {"measurement": "IC50", "setting": "[14]", "value": "0.006 µM (active)"}, {"measurement": "IC50", "setting": "[15]", "value": "0.32 µM (active)"}]}
{"smiles": "C/C(=N\\NC(=O)c1c([N+](=O)[O-])c(C)nn1C)c1ccc(NC(=O)C2CCCC2)cc1", "values": [{"measurement": "EC50", "setting": "[16]", "value": "0.605 µM (active)"}, {"measurement": "EC50", "setting": "BJ [17]", "value": "0.476 µM (active)"}, {"measurement": "EC50", "setting": "BJ [18]", "value": "1.02 µM (active)"}, {"measurement": "AC50", "setting": "[19]", "value": "12.8 µM (active)"}, {"measurement": "EC50", "setting": "BJ [20]", "value": "0.918 µM (inconclusive)"}]}
{"smiles": "Cc1csc(NC(=O)c2oc3ccccc3c2C)n1", "values": [{"measurement": "EC50", "setting": "[21]", "value": "> 67.6 µM (inactive)"}, {"measurement": "EC50", "setting": "cells", "value": "> 67.6 µM (inactive)"}]}
{"smiles": "CC1CCN(S(=O)(=O)c2ccc(C(=O)Nc3nnc(-c4ccco4)o3)cc2)CC1", "values": [{"measurement": "AC50", "setting": "[22]", "value": "> 52 µM (inactive)"}]}
{"smiles": "COc1cc2c(cc1C(=O)N1CCN(c3ccc(C(C)=O)cc3)CC1)OCO2", "values": [{"measurement": "AC50", "setting": "[23]", "value": "13.7 µM (active)"}]}
